Assay results published in a melting point compilation (Tetko et al.).

Conditions: a range is the spread between reports

Structure (SMILES) | melting point [°C]
O=Cc1cc(Cl)ccc1Cl | 56 to 58
O=C(O)CCCCCC(=O)O | 104 to 106
O=C(Cc1ccccc1)Cc1ccccc1 | 32 to 35
c1ccc(CNCCNCc2ccccc2)cc1 | 24 to 26
N#Cc1cc(Cl)ccc1N | 96 to 97
c1ccc(-c2ncc[nH]2)cc1 | 148 to 149
N#CCC(=O)c1ccccc1 | 80.5 to 83
Clc1ccccn1 | -46.5 to -46
CC(=O)Nc1ccccc1[N+](=O)[O-] | 92 to 94
CC(Cl)Cl | -97 to -96.9
CCOC(=O)c1ccc([N+](=O)[O-])cc1 | 57 to 58
C=C[Si]1(C)O[Si](C)(C=C)O[Si](C)(C=C)O[Si](C)(C=C)O1 (configuration not stated) | -43.5 to -43
O=C(O)c1c(F)cccc1Cl | 158 to 160
Oc1ccc(Br)cc1Br | 37 to 40
COc1ccc(OC)c([N+](=O)[O-])c1 | 71 to 72.5
O=Cc1ccc(O)c(O)c1 | 153 to 155
NC(=S)c1c(Cl)cccc1Cl | 151 to 152
Oc1ccccc1I | 38.5 to 43
NS(=O)(=O)c1ccccc1 | 151 to 153
Cc1ccc(Cc2ccc(C)cc2)cc1 | 28 to 29
N#CCc1ccccc1C(F)(F)F | 30 to 33
Cc1c(N)c(=O)n(-c2ccccc2)n1C | 107 to 109
CCCCOc1ccc(C(=O)O)cc1 | 147 to 148
Brc1cc(Br)cc(Br)c1 | 122 to 124
Oc1cccc(Br)c1 | 30 to 33
O=[N+]([O-])c1ccc(O)c(O)c1 | 175 to 176

Structure (SMILES) | melting point [°C]
ICI | 5 to 6.1
Cc1ccc(C)cc1 | 12 to 13.2
O=C(O)c1ccc2c(c1)C(=O)OC2=O | 162 to 167
O=S(Cl)Cl | -105 to -104
CCCCCCCCCCCCCCCC(=O)O | 61 to 62.5
O=c1c(O)c(-c2ccccc2)oc2cc(O)cc(O)c12 | 214 to 215
c1ccc2c(c1)Cc1ccccc1O2 | 100 to 102
O=C(O)Cc1ccc(Cl)cc1 | 103 to 106
O=C(Oc1cccc(O)c1)c1ccccc1 | 132 to 134
Cc1cc(O)c2ccccc2n1 | 234 to 235
Cc1cc([N+](=O)[O-])ccc1N | 132 to 134
O=C(O)CCCCCCCCC(=O)O | 131 to 134
Nc1ccc(C(=O)c2ccccc2)cc1 | 122 to 123
O=[N+]([O-])c1ccccc1Br | 42 to 43
O=[N+]([O-])C(Br)(CO)CO | 127 to 132
O=C(O)CC(O)(CC(=O)O)C(=O)O | 153 to 154
COc1ccc(C=O)c2ccccc12 | 34 to 34.8
C=CC(=O)NC(C)(C)CC(C)=O | 55 to 57.5
CCI | -111 to -108
Oc1ccc(Sc2ccc(O)cc2)cc1 | 153 to 155
Cc1cc(C2(c3cc(C)c(O)c(Br)c3)OS(=O)(=O)c3ccccc32)cc(Br)c1O | 241 to 242
O=Cc1cc(Cl)ccc1O | 100 to 101
Oc1ccc(Cl)cc1 | 41 to 44
CCOc1ccc(NC(C)=O)cc1 | 134 to 138
O=[N+]([O-])c1cccc2ccccc12 | 57 to 62
CC(F)(F)Cl | -131

Structure (SMILES) | melting point [°C]
FC(F)F | -160 to -155
OCCCCCCCCCCCCO | 81.3 to 83
CCc1ccc2c(c1)C(=O)c1ccccc1C2=O | 109 to 110
O=C(O)CCCc1ccccc1 | 48 to 52
N#CCc1ccc(Br)cc1 | 47 to 48
CCCCCCBr | -85 to -84.7
C(#Cc1ccccc1)c1ccccc1 | 60 to 63
O=c1cn[nH]c(=O)[nH]1 | 274 to 276
Brc1ccc(Br)c2ccccc12 | 81 to 83
CCc1nc(N)nc(N)c1-c1ccc(Cl)cc1 | 233 to 234
C=C(C)C#N | -36 to -35.8
N#CN | 44 to 45.6
COC(=O)c1ccc(C=O)cc1 | 60 to 61
O=C(O)c1cc(Cl)cc(Cl)c1 | 186 to 188
OCc1cccc(CO)c1 | 57 to 58
CCOC(=O)c1ccccc1[N+](=O)[O-] | 28 to 30
O=C1C=Cc2cccc3cccc1c23 | 154
CCOc1ccc2ccccc2c1C=O | 112 to 115
BrCCCCCCBr | -2.3 to 2
CCCCCCCCCC(C)O (configuration not stated) | 0 to 2
CCOC(=O)C(=Cc1ccccc1)C(=O)OCC | 30 to 32
C=CCCCCC(=O)O | -6.5 to -6
O=[N+]([O-])c1cccc(CO)c1 | 30.5 to 32
O=C(O)c1ccccc1Cl | 139 to 142
C=CCCCCCCCCCCCCCCCC | 16 to 18
CCCCNC(=O)NS(=O)(=O)c1ccc(C)cc1 | 128 to 129

Structure (SMILES) | melting point [°C]
Oc1cc2ccccc2cc1O | 162 to 164
c1ccc(P(CCCP(c2ccccc2)c2ccccc2)c2ccccc2)cc1 | 60 to 61
CCCCCCCCCCCC | -10 to -9.6
CCC(C)=O | -87 to -86
c1ccc2cc(-c3ccc4ccccc4c3)ccc2c1 | 187 to 188
Nc1ccccc1Nc1ccccc1 | 79 to 79.5
CC(=O)OO | -0.2 to 0.1
CCCCCCCCCCCCCCCCCCCCCC | 42 to 45
Nc1ccc2ncsc2c1 | 87 to 88
O=C(O)c1ccccc1C(F)(F)F | 109 to 111
NNS(=O)(=O)c1ccccc1 | 102 to 103
N#C/C=C/C#N | 96.8 to 97
O=C(O)c1ccc2ccccc2n1 | 156 to 158
O=C1OCc2c(Cl)c(Cl)c(Cl)c(Cl)c21 | 208 to 210
CCOc1ccc(C=O)cc1OC | 61 to 64.5
CCOC(=O)c1ccc(O)cc1 | 116 to 117
CC(C)Nc1ccc(Nc2ccccc2)cc1 | 74 to 77
Nc1cccc2c1C(=O)c1ccccc1C2=O | 250 to 254
Cc1cc(-c2ccc(N)c(C)c2)ccc1N | 130 to 132
CCCCCCC(=O)Cl | -84 to -83.8
BrCCCCCCCCCCCCBr | 40 to 41
O=C(O)c1ccccc1N=Nc1ccc(O)cc1 | 205 to 206
Cc1ccc2cccc(O)c2n1 | 72 to 73.8
NC(=O)NCc1ccccc1 | 148 to 149
O=[N+]([O-])c1ccccc1SSc1ccccc1[N+](=O)[O-] | 194 to 196
N#Cc1c(F)c(F)c(F)c(F)c1F | 2 to 2.4

More lines, now with the values ahead:

melting point [°C] | Structure (SMILES)
250 to 251 | O=C1CC(c2ccc(O)cc2)Oc2cc(O)cc(O)c21 (configuration not stated)
103 to 106 | CCOC(=O)c1c[nH]nc1N
89 to 90 | ON=C1CCCCC1
11 to 12 | CC(S)C(=O)O (configuration not stated)
61.5 to 62 | CCOc1ccc(C#N)cc1
43 to 44 | COC(=O)c1ccc(Cl)cc1
-93 to -92.9 | CCCOC=O
-86.3 to -82 | C=Cc1cccc(C)c1
57.5 to 58 | COC(=O)CCC(=O)O
-8 to -5 | CCCC(=O)O
-69 to -68.5 | C=Cc1ccccc1C
79 to 80 | c1ccc2c(c1)OCCOCCOCCOCCO2
106 to 107 | c1ccc2c(c1)CCc1ccccc1N2
-143 to -142 | CC1CCCC1
-118 | CCCCC(C)C
10 to 10.5 | CC(=O)c1cc(C)c(C)cc1C
92 to 93 | Cc1ccc(CC(=O)O)cc1
162 to 165 | Cc1c(C)c(C)c(Br)c(C)c1C
-130 | CCCC=C(C)C
41 to 44 | O=C(OCc1ccccc1)c1ccccc1C(=O)OCc1ccccc1
45.7 to 49 | Cc1cccc(C)c1O

melting point [°C] | Structure (SMILES)
-81 to -79.6 | CCOC=O
41 to 44.5 | COc1cccc(C=O)c1O
72 to 73 | Cc1cc(C)c(O)c(C)c1
-117 | CCC#CC(C)C
-138 to -137 | C=C(C)Cl
184 | CN1CCN(C2=Nc3cc(Cl)ccc3Nc3ccccc32)CC1
22 to 26 | C[Si](C)(C)C#C[Si](C)(C)C
37 to 39.5 | O=C1CCCCN1
146 to 147 | Cn1ccnc1S
7.5 to 8 | CC(=O)c1cccc(Br)c1
148 | CC(=O)NC12CC3CC(CC(C3)C1)C2
211 to 213 | Cc1n[nH]c(=O)[nH]c1=O
149 to 153 | CC(=O)N[C@@H](Cc1ccc(O)cc1)C(=O)O
42 to 42.5 | COC(=O)c1cccnc1
-1 to 0 | COc1cccc(N)c1
77 to 78 | CC#CC(=O)O
45 to 49.5 | O=C(CCC(=O)OCc1ccccc1)OCc1ccccc1
30.5 to 31 | CC=CC=CCO
60.2 to 61 | C1OCOCO1
-56 to -53.5 | CC(C)C(=O)OC(=O)C(C)C
124 to 127 | COc1ccc(N)c([N+](=O)[O-])c1

melting point [°C] | Structure (SMILES)
164 to 165 | CN(C)c1ccc([N+](=O)[O-])cc1
-168 | C=CC(C)C
164 to 168 | c1ccc2c(c1)-c1cccc3c1c-2cc1ccccc13
36 to 37.8 | Cc1c(Cl)cccc1[N+](=O)[O-]
33.5 to 35 | COc1ccc(N)c(OC)c1
55 to 56 | O=C(c1ccccc1)C1CCCCC1
114 to 118 | CC1CNC(C)CN1 (configuration not stated)
-78.2 to -78 | C#CC(C)(C)C
29 to 31 | COc1ccccc1-c1ccccc1
110 to 111 | CC(N)(CO)CO
178 to 180 | CC1(C)C2CC[C@@]1(C)C(=O)C2
159 to 163 | Cc1ccc(C(N)=O)cc1
-109 | COC(C)(C)C
-75 to -74.6 | CCCCCCCC(C)C
97 to 98.5 | CCc1ccc(O)cc1O
-97 to -96.5 | CC[Si](Cl)(Cl)CC
-80 to -79.5 | C1=CC=CCC=C1
138 to 142 | Cc1ccc[nH]c1=O
19 to 19.5 | COC(=O)CCC(=O)OC
50 to 54 | CC(C)(C)CO
70 to 71 | CC(=O)OCC(C(OC(C)=O)c1ccccc1)[N+](=O)[O-] (configuration not stated)
